Data from the NIST ThermoML archive (doi:10.1021/je034208m).

Test: xn = mol fraction of the nth substance listed
Conditions: 101.33 kPa, Liquid; for speed of sound: Sing-around technique in a fixed-path interferometer

CCCC(C)O (centres undefined) [pentan-2-ol] + CCCCCCCC
Conditions | mass density, 293.15 K [kg/m3] | mass density, 298.15 K [kg/m3] | mass density, 303.15 K [kg/m3] | speed of sound, 293.15 K [m/s] | speed of sound, 298.15 K [m/s] | speed of sound, 303.15 K [m/s] | viscosity, 293.15 K [mPa·s] | viscosity, 298.15 K [mPa·s] | viscosity, 303.15 K [mPa·s]
x1 = 0.0509 | 705.58 | 701.48 | 697.35 | 1190 | 1170 | 1149 | 0.548 | 0.517 | 0.486
x1 = 0.105 | 709.15 | 705.03 | 700.87 | 1189 | 1169 | 1148 | 0.566 | 0.53 | 0.498
x1 = 0.1853 | 714.98 | 710.84 | 706.65 | 1188 | 1168 | 1147 | 0.598 | 0.56 | 0.525
x1 = 0.2976 | 723.78 | 719.63 | 715.43 | 1188 | 1168 | 1147 | 0.658 | 0.613 | 0.572
x1 = 0.3968 | 732.4 | 728.24 | 724.03 | 1189 | 1169 | 1149 | 0.732 | 0.678 | 0.629
x1 = 0.4953 | 741.91 | 737.73 | 733.5 | 1192 | 1172 | 1153 | 0.841 | 0.77 | 0.709
x1 = 0.5965 | 752.73 | 748.53 | 744.29 | 1198 | 1178 | 1158 | 1.008 | 0.915 | 0.826
x1 = 0.6993 | 764.97 | 760.76 | 756.5 | 1207 | 1187 | 1167 | 1.296 | 1.147 | 1.022
x1 = 0.7971 | 777.92 | 773.74 | 769.48 | 1218 | 1199 | 1179 | 1.727 | 1.495 | 1.307
x1 = 0.8997 | 792.82 | 788.69 | 784.49 | 1233 | 1214 | 1195 | 2.531 | 2.133 | 1.821
x1 = 0.9509 | 800.83 | 796.75 | 792.59 | 1242 | 1223 | 1204 | 3.19 | 2.635 | 2.215
x1 = 1 | 809.04 | 805.01 | 800.9 | 1250 | 1232 | 1214 | 4.001 | 3.273 | 2.708

CCCC(C)O (centres undefined) [pentan-2-ol] + CCCCCCCCCC
Conditions | mass density, 293.15 K [kg/m3] | mass density, 298.15 K [kg/m3] | mass density, 303.15 K [kg/m3] | speed of sound, 293.15 K [m/s] | speed of sound, 298.15 K [m/s] | speed of sound, 303.15 K [m/s] | viscosity, 293.15 K [mPa·s] | viscosity, 298.15 K [mPa·s] | viscosity, 303.15 K [mPa·s]
x1 = 0.0487 | 731.62 | 727.76 | 723.89 | 1251 | 1231 | 1211 | 0.914 | 0.845 | 0.779
x1 = 0.0987 | 733.41 | 729.53 | 725.62 | 1248 | 1228 | 1209 | 0.912 | 0.844 | 0.782
x1 = 0.2043 | 738.14 | 734.23 | 730.28 | 1243 | 1223 | 1204 | 0.956 | 0.882 | 0.81
x1 = 0.2996 | 742.88 | 738.94 | 734.96 | 1239 | 1220 | 1200 | 0.989 | 0.909 | 0.842
x1 = 0.4006 | 748.67 | 744.7 | 740.69 | 1236 | 1216 | 1197 | 1.084 | 0.99 | 0.883
x1 = 0.5017 | 755.31 | 751.3 | 747.25 | 1233 | 1214 | 1194 | 1.149 | 1.044 | 0.952
x1 = 0.6002 | 762.88 | 758.83 | 754.73 | 1232 | 1213 | 1193 | 1.3 | 1.166 | 1.053
x1 = 0.6985 | 771.67 | 767.58 | 763.44 | 1233 | 1214 | 1194 | 1.531 | 1.352 | 1.201
x1 = 0.7992 | 782.4 | 778.29 | 774.12 | 1237 | 1217 | 1198 | 1.914 | 1.646 | 1.439
x1 = 0.8996 | 794.55 | 790.46 | 786.3 | 1242 | 1223 | 1204 | 2.626 | 2.214 | 1.888
x1 = 0.95 | 801.5 | 797.43 | 793.28 | 1246 | 1228 | 1209 | 3.205 | 2.651 | 2.244
x1 = 1 | 809.04 | 805.01 | 800.9 | 1250 | 1232 | 1214 | 4.001 | 3.273 | 2.708

CCCC(C)O (centres undefined) [pentan-2-ol] + CCCCCCCCCCCC
Conditions | mass density, 293.15 K [kg/m3] | mass density, 298.15 K [kg/m3] | mass density, 303.15 K [kg/m3] | speed of sound, 293.15 K [m/s] | speed of sound, 298.15 K [m/s] | speed of sound, 303.15 K [m/s] | viscosity, 293.15 K [mPa·s] | viscosity, 298.15 K [mPa·s] | viscosity, 303.15 K [mPa·s]
x1 = 0.049 | 749.65 | 745.96 | 742.26 | 1294 | 1275 | 1256 | 1.443 | 1.316 | 1.206
x1 = 0.0965 | 750.77 | 747.03 | 743.3 | 1291 | 1271 | 1252 | 1.441 | 1.312 | 1.201
x1 = 0.2065 | 753.81 | 750.05 | 746.25 | 1284 | 1265 | 1245 | 1.438 | 1.307 | 1.194
x1 = 0.2993 | 756.86 | 753.06 | 749.23 | 1278 | 1259 | 1240 | 1.465 | 1.33 | 1.211
x1 = 0.3986 | 760.67 | 756.84 | 752.97 | 1271 | 1252 | 1233 | 1.499 | 1.355 | 1.231
x1 = 0.5046 | 765.6 | 761.71 | 757.79 | 1265 | 1246 | 1227 | 1.563 | 1.406 | 1.27
x1 = 0.5974 | 770.7 | 766.77 | 762.79 | 1260 | 1241 | 1222 | 1.667 | 1.487 | 1.338
x1 = 0.7026 | 777.76 | 773.76 | 769.72 | 1255 | 1236 | 1217 | 1.865 | 1.635 | 1.447
x1 = 0.8001 | 785.82 | 781.77 | 777.66 | 1253 | 1233 | 1214 | 2.205 | 1.9 | 1.652
x1 = 0.8994 | 795.9 | 791.84 | 787.71 | 1251 | 1232 | 1213 | 2.786 | 2.347 | 1.998
x1 = 0.9497 | 802.07 | 798.02 | 793.89 | 1251 | 1232 | 1213 | 3.267 | 2.717 | 2.284
x1 = 1 | 809.04 | 805 | 800.9 | 1250 | 1232 | 1214 | 4.001 | 3.273 | 2.708
